{"source": "patent US6469028B1", "about": "“Synthesis and use of retinoid compounds having negative hormone and/or anatgonist activities” (Allergan, Inc., priority 1995, dated 2002)", "key": {"[1]": {"system": "tissue transglutaminase (TGase) gene in HL-60 cells", "test": "TGase activity in HL-60 cells", "assay_type": "cell-based", "settings": "TGase induced by RXR agonists", "description": "This same mechanism can account for the observation that AGN 193109 can repress the activity of the tissue transglutaminase (TGase) gene in HL-60 cells. A retinoid response element consisting of three canonical retinoid half sites spaced by 5 and 7 base pairs has been identified in the transcription control region of this gene. While TGase can be induced by RXR-selective agonists, it is not responsive to RAR-selective agonists. The TGase retinoid response element is bound by an RAR/RXR heterodimer (Davies et al. in Press). […] This AGN 193109 mediated repression can be accounted for by the ability of this negative hormone to sequester NCPs to the RAR component of the heterodimer, thereby repressing the activity of the associated RXR."}, "RARβ [2]": {"biological_target": "T1, RARβ (Homo sapiens, UniProt P10826)", "T1 sequence (P10826 1-448 isoform P10826-2)": "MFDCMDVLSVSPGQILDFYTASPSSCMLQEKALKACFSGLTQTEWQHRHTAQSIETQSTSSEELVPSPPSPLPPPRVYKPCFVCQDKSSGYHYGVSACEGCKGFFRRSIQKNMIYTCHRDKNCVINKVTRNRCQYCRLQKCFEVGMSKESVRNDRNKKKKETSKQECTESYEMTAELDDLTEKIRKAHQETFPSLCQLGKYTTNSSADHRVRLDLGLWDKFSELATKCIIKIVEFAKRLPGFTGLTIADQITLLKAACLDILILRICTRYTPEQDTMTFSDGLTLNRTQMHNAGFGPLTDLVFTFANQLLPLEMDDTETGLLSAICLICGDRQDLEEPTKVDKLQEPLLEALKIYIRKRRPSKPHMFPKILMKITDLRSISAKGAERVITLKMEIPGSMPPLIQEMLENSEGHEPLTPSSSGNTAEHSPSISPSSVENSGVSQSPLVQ", "test": "Transactivation in CV-1 cells, ΔMTV-TREp-Luc reporter", "assay_type": "cell-based", "set-up": "expressed in transfected cells; host or cells: green monkey CV-1 cells", "settings": "10^−9 to 10^−6 M, 18 hours", "protocol": "AGN 193109 was also tested for its ability to transactivate RARs in CV-1 cells transiently cotransfected with RAR expression vectors and a retinoid responsive reporter gene construct. Receptor expression vectors pRShRAR-α (Giguere et al. Nature 330:624 (1987)), pRShRAR-β (Benbrook et al. Nature 333:669 (1988)) and pRShRAR-γ (Ishikawa et al. Mol. Endocrinol. 4:837 (1990)) were separately cotransfected with the ΔMTV-TREp-Luc reporter plasmid. Use of this luciferase reporter plasmid has been disclosed by Heyman et al. in Cell 68:397 (1992). The ΔMTV-TREp-Luc plasmid is essentially identical to the ΔMTV-TREp-CAT reporter construct described by Umesono et al. in Nature 336:262 (1988), except that the chloramphenicol acetyltransferase (CAT) reporter gene was substituted by a polynucleotide sequence encoding firefly luciferase. Transfection of green monkey CV-1 cells was carried out using the calcium phosphate coprecipitation method described in Molecular Cloning: A Laboratory Manual (Sambrook et al. eds. Cold Spring Harbor Lab Publ. 1989). CV-1 cells were plated at a density of 4×10^4/well in 12 well multiwell plates and transiently transfected with a calcium phosphate precipitate containing 0.7 μg of reporter plasmid and 0.1 μg of receptor plasmid according to standard laboratory procedures. […]"}, "RARβ [3]": {"biological_target": "T1, RARβ", "test": "Example 7: inhibition of RAR transactivation by ATRA, CV-1 cells", "assay_type": "cell-based", "set-up": "expressed in transfected cells; host or cells: green monkey CV-1 cells", "settings": "equal doses of AGN 193109 and ATRA (10 nM ATRA)", "protocol": "Eukaryotic expression vectors pRShRAR-α (Giguere et al. Nature 330:624 (1987)), pRShRAR-β (Benbrook et al. Nature 333:669 (1988)) and pRShRAR-γ (Ishikawa et al. Mol. Endocrinol. 4:837 (1990)) were cotransfected with the Δ-MTV-Luc reporter plasmid described by Hollenberg et al. (Cell 55:899.(1988)). […] Calcium phosphate transfections were carried out exactly as described in Example 6. […] Cell lysates and luciferase activity measurements were also performed as in Example 6."}, "[4]": {"system": "stromelysin-1 expression in primary foreskin keratinocytes", "test": "Example 21: stromelysin-1 expression in keratinocytes (RT-PCR)", "assay_type": "cell-based, human", "settings": "AGN 191183 10^−7 M or AGN 193109 10^−6 M, 24 hours", "protocol": "Total RNA prepared from mock-treated and retinoid-treated keratinocytes was reverse transcribed and the resulting cDNA was PCR amplified using β-actin or stromelysin-1 oligo primers exactly as described by Nagpal et al. in J. Biol. Chem. 270:923 (1995)), the disclosure of which has been incorporated by reference. A sample (10 μl) from the PCR amplification reaction was removed after every three cycles starting from 18 cycles of PCR amplification. The sample was electrophoresed on a 2% agarose gel and detected after ethidium bromide staining."}, "RAR-γ-VP-16": {"system": "RAR-γ-VP-16", "test": "RAR-γ-VP-16 activity at the ΔMTV-TREp-Luc reporter", "assay_type": "cell-based", "description": "We have also obtained results which support conclusions identical to those presented under Example 11 by employing RAR-γ-VP-16 and expression constructs and the ΔMTV-TREp-Luc reporter plasmid instead of the RAR-γ-VP-16 and ER-RXR-α expression constructs in combination with the ERE-tk-Luc reporter plasmid. […] Therefore, AGN 193109 repressed RAR-γ-VP-16 activity when this chimeric receptor was directly bound to a retinoic acid receptor response element instead of indirectly bound to an estrogen response element in the promoter region of the reporter plasmid. […] Instead, the critical feature embodied by an experimental system useful for identifying retinoid negative hormones involves detecting the ability of a compound to repress the activity of an RAR engineered to contain a constitutive transcription activation domain."}}, "data": [{"compound": "Cc1ccc(C2=CCC(C)(C)c3ccc(C#Cc4ccc(C(=O)O)cc4)cc32)cc1", "note": "[Compound 60, 4-[(5,6-dihydro-5,5-dimethyl-8-(4-methylphenyl)-2-naphthalenyl)ethynyl]benzoic acid]", "values": [{"measurement": "TGase activity", "setting": "[1]", "result": "able to repress TGase activity induced by RXR agonists"}, {"measurement": "EC50 (nM) RAR-β", "setting": "RARβ [2]", "result": "No Activity"}, {"measurement": "inhibition of luciferase activity relative to ATRA alone", "setting": "RARβ [3]", "result": "greater than 50%"}, {"measurement": "stromelysin-1 mRNA expression", "setting": "[4]", "result": "down-regulation of stromelysin-1 mRNA levels"}, {"measurement": "RAR-γ-VP-16 activity at the ΔMTV-TREp-Luc reporter", "setting": "RAR-γ-VP-16", "result": "inhibited"}]}]}
